Measurements reported in the kinase profiling compilation of Christmann-Franck et al. (2016).
Where “and” joins values, the source holds several entries; their conditions need not be identical. Identical values can stand only once.

Tests used:
Assay in all cases: radiometric filter-binding kinase assay, Kinase HotSpot
Conditions in all cases: compound 0.5 µM; ATP 10 µM
OXSR1 (human) = OXSR1 (human) (UniProt O95747)
TYRO3 (human) = TYRO3 (human) (UniProt Q06418)
SRMS (human) = SRMS (human) (UniProt Q9H3Y6)
RPS6KA4 KD2 (human) = RPS6KA4 KD2 (human) (UniProt O75676)
FGR (human) = FGR (human) (UniProt P09769)
PLK3 (human) = PLK3 (human) (UniProt Q9H4B4)
STK25 (human) = STK25 (human) (UniProt O00506)
ERBB2 (human) = ERBB2 (human) (UniProt P04626)
WEE1 (human) = WEE1 (human) (UniProt P30291)
JAK2 JH1 JH2 (human) = JAK2 JH1 JH2 (human) (UniProt O60674)
EPHB4 (human) = EPHB4 (human) (UniProt P54760)
MYO3B (human) = MYO3B (human) (UniProt Q8WXR4)
CHEK1 (human) = CHEK1 (human) (UniProt O14757)
DYRK1B (human) = DYRK1B (human) (UniProt Q9Y463)
NTRK2 (human) = NTRK2 (human) (UniProt Q16620)
NTRK2 (human), sequence (Q16620 whole entry, looked up): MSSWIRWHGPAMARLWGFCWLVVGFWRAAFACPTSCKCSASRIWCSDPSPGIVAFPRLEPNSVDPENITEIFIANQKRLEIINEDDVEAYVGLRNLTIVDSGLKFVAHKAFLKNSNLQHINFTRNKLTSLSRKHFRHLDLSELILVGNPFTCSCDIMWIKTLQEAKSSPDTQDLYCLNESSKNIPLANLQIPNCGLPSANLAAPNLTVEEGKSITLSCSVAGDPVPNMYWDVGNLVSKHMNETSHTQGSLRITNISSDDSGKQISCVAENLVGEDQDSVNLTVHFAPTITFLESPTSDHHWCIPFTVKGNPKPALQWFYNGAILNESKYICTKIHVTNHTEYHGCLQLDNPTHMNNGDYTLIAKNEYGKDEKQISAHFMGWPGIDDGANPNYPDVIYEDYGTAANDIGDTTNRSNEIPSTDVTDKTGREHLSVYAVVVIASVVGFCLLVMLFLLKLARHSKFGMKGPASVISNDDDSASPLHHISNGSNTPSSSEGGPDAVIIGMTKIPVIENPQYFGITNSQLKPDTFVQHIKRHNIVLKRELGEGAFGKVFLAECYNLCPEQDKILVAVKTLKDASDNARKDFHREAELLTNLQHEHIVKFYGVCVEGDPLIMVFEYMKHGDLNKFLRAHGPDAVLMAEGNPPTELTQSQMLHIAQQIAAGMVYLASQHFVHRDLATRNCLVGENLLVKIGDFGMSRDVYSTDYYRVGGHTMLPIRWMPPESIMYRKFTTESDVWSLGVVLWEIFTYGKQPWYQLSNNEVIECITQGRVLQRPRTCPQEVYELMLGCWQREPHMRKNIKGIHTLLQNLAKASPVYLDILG

CAMK1D (human) = CAMK1D (human) (UniProt Q8IU85)
MAP3K10 (human) = MAP3K10 (human) (UniProt Q02779)
BRAF (human) = BRAF (human) (UniProt P15056)
NUAK1 (human) = NUAK1 (human) (UniProt O60285)
TAOK1 (human) = TAOK1 (human) (UniProt Q7L7X3)
ULK3 (human) = ULK3 (human) (UniProt Q6PHR2)
ADRBK1 (human) = ADRBK1 (human) (UniProt P25098)
INSR (human) = INSR (human) (UniProt P06213)
ABL2 (human) = ABL2 (human) (UniProt P42684)
EPHA6 (human) = EPHA6 (human) (UniProt Q9UF33)
PIM3 (human) = PIM3 (human) (UniProt Q86V86)
STK38 (human) = STK38 (human) (UniProt Q15208)
RPS6KA1 KD1 KD2 (human) = RPS6KA1 KD1 KD2 (human) (UniProt Q15418)
ULK2 (human) = ULK2 (human) (UniProt Q8IYT8)
PAK7 (human) = PAK7 (human) (UniProt Q9P286)
YES1 (human) = YES1 (human) (UniProt P07947)
DSTYK (human) = DSTYK (human) (UniProt Q6XUX3)
PRKACG (human) = PRKACG (human) (UniProt P22612)
PRKACG (human), sequence (P22612 whole entry, looked up): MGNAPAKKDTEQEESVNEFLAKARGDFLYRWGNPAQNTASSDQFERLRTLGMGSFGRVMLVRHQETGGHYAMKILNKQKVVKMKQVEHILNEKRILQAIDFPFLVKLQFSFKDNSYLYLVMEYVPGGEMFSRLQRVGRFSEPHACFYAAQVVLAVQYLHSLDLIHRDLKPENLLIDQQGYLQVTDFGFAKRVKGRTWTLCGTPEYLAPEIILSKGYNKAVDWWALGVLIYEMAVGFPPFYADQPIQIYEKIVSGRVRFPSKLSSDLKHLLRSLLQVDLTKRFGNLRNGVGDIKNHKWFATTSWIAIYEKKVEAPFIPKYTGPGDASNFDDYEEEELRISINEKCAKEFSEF

CAMKK2 (human) = CAMKK2 (human) (UniProt Q96RR4)
DAPK2 (human) = DAPK2 (human) (UniProt Q9UIK4)
PRKG1 (human) = PRKG1 (human) (UniProt Q13976)
TLK2 (human) = TLK2 (human) (UniProt Q86UE8)
ADRBK2 (human) = ADRBK2 (human) (UniProt P35626)
EGFR (human) = EGFR (human) (UniProt P00533)
EGFR (human), sequence (P00533 whole entry, looked up): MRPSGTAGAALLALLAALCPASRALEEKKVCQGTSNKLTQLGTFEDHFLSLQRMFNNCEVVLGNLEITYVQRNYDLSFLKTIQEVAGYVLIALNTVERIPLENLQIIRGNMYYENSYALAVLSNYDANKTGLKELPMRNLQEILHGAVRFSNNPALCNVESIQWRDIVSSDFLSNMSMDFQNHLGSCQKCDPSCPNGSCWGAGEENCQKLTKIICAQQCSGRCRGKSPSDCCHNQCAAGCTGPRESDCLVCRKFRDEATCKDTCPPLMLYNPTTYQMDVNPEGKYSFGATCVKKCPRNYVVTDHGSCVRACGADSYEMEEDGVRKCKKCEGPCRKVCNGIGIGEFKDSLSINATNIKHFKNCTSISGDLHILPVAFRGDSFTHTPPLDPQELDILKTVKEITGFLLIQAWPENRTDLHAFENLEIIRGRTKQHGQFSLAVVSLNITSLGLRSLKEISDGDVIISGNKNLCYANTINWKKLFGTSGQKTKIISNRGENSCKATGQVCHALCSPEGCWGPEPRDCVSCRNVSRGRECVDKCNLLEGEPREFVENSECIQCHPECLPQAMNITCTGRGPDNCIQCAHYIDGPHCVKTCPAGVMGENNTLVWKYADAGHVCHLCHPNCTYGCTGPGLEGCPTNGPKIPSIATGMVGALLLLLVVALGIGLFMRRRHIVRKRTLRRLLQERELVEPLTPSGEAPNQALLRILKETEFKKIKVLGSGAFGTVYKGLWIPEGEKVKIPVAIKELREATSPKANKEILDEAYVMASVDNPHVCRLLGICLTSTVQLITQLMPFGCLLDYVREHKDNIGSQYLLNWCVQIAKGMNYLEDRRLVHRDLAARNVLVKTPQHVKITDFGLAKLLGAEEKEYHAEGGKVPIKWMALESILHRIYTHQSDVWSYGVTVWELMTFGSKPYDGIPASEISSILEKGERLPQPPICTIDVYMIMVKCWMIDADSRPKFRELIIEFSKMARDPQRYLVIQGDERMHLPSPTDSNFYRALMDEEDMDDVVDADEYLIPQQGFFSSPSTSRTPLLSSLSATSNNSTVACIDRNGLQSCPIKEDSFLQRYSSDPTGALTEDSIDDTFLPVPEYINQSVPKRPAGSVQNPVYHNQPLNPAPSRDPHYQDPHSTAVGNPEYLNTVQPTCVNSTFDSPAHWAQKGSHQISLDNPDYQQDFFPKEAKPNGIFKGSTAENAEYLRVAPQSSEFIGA

LYN (human) = LYN (human) (UniProt P07948)
CDC42BPA (human) = CDC42BPA (human) (UniProt Q5VT25)
CDC42BPA (human), sequence (Q5VT25 whole entry, looked up): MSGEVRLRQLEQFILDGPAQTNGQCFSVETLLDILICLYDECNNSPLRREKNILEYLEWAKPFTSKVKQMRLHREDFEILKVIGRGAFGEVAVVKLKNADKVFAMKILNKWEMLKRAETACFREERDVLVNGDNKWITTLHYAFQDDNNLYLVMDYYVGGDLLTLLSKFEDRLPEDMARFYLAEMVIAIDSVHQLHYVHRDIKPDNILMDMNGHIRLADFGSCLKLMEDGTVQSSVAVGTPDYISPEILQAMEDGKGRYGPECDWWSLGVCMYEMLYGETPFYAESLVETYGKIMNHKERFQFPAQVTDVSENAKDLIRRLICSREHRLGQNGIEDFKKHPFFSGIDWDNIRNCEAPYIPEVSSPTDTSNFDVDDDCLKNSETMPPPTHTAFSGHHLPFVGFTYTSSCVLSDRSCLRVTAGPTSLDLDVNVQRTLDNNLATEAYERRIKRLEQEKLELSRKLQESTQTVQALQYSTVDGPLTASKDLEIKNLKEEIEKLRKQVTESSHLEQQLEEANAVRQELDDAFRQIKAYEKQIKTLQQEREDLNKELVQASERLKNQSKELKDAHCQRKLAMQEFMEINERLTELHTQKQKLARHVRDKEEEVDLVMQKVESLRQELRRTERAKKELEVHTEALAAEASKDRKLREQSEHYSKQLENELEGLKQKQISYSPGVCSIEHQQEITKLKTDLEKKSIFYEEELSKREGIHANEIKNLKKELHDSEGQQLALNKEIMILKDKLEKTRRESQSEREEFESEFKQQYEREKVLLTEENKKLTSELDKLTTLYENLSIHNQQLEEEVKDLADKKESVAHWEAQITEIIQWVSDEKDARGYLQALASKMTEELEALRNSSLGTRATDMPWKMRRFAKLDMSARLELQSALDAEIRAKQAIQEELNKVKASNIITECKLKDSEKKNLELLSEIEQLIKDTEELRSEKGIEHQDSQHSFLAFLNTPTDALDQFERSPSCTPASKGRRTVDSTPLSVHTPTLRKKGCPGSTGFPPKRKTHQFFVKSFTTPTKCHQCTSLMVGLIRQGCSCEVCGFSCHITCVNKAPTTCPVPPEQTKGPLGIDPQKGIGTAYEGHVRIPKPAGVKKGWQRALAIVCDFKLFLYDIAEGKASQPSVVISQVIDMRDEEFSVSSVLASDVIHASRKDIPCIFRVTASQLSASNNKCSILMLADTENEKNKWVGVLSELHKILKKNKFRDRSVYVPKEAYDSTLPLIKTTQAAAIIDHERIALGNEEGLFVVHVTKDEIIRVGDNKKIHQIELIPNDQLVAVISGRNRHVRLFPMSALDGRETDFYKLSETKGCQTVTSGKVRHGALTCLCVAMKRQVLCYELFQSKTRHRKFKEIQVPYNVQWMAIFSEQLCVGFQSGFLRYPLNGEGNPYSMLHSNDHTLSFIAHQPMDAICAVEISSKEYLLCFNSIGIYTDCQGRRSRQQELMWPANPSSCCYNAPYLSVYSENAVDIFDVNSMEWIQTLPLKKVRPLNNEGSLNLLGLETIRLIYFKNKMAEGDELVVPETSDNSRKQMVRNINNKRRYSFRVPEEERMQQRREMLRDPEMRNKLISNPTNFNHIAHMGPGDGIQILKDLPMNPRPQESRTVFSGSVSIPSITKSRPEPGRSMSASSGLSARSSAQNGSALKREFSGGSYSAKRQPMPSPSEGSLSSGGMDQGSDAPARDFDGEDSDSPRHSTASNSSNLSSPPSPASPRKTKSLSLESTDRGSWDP

LCK (human) = LCK (human) (UniProt P06239)

TYRO3 (human), sequence (Q06418 whole entry, looked up): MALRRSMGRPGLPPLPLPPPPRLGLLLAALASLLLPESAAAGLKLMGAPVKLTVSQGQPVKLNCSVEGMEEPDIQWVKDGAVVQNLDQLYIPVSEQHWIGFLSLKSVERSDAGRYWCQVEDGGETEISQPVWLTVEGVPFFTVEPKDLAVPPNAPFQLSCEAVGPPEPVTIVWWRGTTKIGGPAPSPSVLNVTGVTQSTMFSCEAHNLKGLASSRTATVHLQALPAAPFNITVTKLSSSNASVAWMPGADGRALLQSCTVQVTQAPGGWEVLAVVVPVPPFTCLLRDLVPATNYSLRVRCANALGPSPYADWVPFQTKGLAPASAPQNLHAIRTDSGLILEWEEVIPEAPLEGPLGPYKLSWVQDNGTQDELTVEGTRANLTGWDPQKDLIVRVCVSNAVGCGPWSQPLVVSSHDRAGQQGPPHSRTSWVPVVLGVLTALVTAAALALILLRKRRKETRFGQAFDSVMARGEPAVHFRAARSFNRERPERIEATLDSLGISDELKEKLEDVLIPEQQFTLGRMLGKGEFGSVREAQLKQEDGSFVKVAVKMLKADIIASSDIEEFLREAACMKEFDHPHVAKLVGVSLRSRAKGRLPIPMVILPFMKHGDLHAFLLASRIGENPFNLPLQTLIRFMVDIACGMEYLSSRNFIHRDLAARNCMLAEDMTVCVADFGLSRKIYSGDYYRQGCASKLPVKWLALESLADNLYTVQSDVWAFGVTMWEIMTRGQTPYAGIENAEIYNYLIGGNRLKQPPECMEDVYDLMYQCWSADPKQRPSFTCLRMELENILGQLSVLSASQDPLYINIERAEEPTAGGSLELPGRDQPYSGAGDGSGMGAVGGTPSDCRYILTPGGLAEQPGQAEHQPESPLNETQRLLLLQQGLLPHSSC

`CCc1nc(-c2ccc(OC)cc2)[nH]c1-c1ccncc1` gave a residual activity (OXSR1 (human)) of 97.7%, a residual activity (TYRO3 (human)) of 97.9% and a residual activity (SRMS (human)) of 106%. For the same molecule, the residual activity (RPS6KA4 KD2 (human)) was 98.6%, the residual activity (FGR (human)) was 97.2% and the residual activity (PLK3 (human)) was 96.9%. It also gave a residual activity (STK25 (human)) of 116%, a residual activity (ERBB2 (human)) of 98.9% and a residual activity (WEE1 (human)) of 89.1%. For the same molecule, the residual activity (JAK2 JH1 JH2 (human)) was 96.7%, the residual activity (EPHB4 (human)) was 90.3% and the residual activity (MYO3B (human)) was 107%. It also gave a residual activity (CHEK1 (human)) of 98.6%, a residual activity (DYRK1B (human)) of 106% and a residual activity (NTRK2 (human)) of 105%. For the same molecule, the residual activity (CAMK1D (human)) was 104%, the residual activity (MAP3K10 (human)) was 102% and the residual activity (BRAF (human)) was 102%. For the same molecule, the residual activity (NUAK1 (human)) was 92.8%, the residual activity (TAOK1 (human)) was 104% and the residual activity (ULK3 (human)) was 83.4%. For the same molecule, the residual activity (ADRBK1 (human)) was 101%, the residual activity (INSR (human)) was 85% and the residual activity (ABL2 (human)) was 98.3%. For the same molecule, the residual activity (EPHA6 (human)) was 104%, the residual activity (PIM3 (human)) was 112% and the residual activity (STK38 (human)) was 102%. It also gave a residual activity (RPS6KA1 KD1 KD2 (human)) of 106%, a residual activity (ULK2 (human)) of 98% and a residual activity (PAK7 (human)) of 101%. The residual activity (YES1 (human)) was 95.1%, the residual activity (DSTYK (human)) was 99.6% and the residual activity (PRKACG (human)) was 103%. For the same molecule, the residual activity (CAMKK2 (human)) was 109%, the residual activity (DAPK2 (human)) was 104% and the residual activity (PRKG1 (human)) was 81% and 91.2%. For the same molecule, the residual activity (TLK2 (human)) was 102%, the residual activity (ADRBK2 (human)) was 98.4% and the residual activity (EGFR (human)) was 103%. For the same molecule, the residual activity (LYN (human)) was 101% and 103% and the residual activity (CDC42BPA (human)) was 96.3%.

For `Cn1cc(/C=C2\C(=O)Nc3ccc(S(N)(=O)=O)cc32)c2ccccc21`, the residual activity (OXSR1 (human)) was 93.7%, the residual activity (TYRO3 (human)) was 90.5% and the residual activity (SRMS (human)) was 99.8%. It also gave a residual activity (RPS6KA4 KD2 (human)) of 71.2%, a residual activity (FGR (human)) of 28.4% and a residual activity (PLK3 (human)) of 99%. For the same molecule, the residual activity (STK25 (human)) was 83.5%, the residual activity (ERBB2 (human)) was 120% and the residual activity (WEE1 (human)) was 82.3%. It also gave a residual activity (JAK2 JH1 JH2 (human)) of 58.4%, a residual activity (EPHB4 (human)) of 57.4% and a residual activity (MYO3B (human)) of 74.6%. For the same molecule, the residual activity (CHEK1 (human)) was 19.5%, the residual activity (DYRK1B (human)) was 104% and the residual activity (NTRK2 (human)) was 4.83%. For the same molecule, the residual activity (CAMK1D (human)) was 69.6%, the residual activity (MAP3K10 (human)) was 95.9% and the residual activity (NUAK1 (human)) was 5.88%. It also gave a residual activity (TAOK1 (human)) of 98.3%, a residual activity (ULK3 (human)) of 15.8% and a residual activity (ADRBK1 (human)) of 100%. The residual activity (INSR (human)) was 87.4%, the residual activity (ABL2 (human)) was 54.2% and the residual activity (EPHA6 (human)) was 30.2%. It also gave a residual activity (PIM3 (human)) of 91.6%, a residual activity (STK38 (human)) of 53.1% and a residual activity (RPS6KA1 KD1 KD2 (human)) of 12.7%. The residual activity (ULK2 (human)) was 72.3%, the residual activity (PAK7 (human)) was 75.3% and the residual activity (YES1 (human)) was 24.2%. It also gave a residual activity (DSTYK (human)) of 92.5%, a residual activity (PRKACG (human)) of 101% and a residual activity (LCK (human)) of 57.6%. For the same molecule, the residual activity (CAMKK2 (human)) was 34.4%, the residual activity (PRKG1 (human)) was 81.1% and 87.2% and the residual activity (TLK2 (human)) was 63.2%. It also gave a residual activity (ADRBK2 (human)) of 111%, a residual activity (EGFR (human)) of 77.5% and a residual activity (CDC42BPA (human)) of 70.7%.

`FC(F)(F)c1ccc(/C=C/c2nc(COc3ccc(CCCCn4ccnn4)cc3)co2)cc1` showed a residual activity (OXSR1 (human)) of 99.7%, a residual activity (TYRO3 (human)) of 103% and a residual activity (SRMS (human)) of 93.5%. The residual activity (RPS6KA4 KD2 (human)) was 105%, the residual activity (FGR (human)) was 92.6% and the residual activity (PLK3 (human)) was 107%. The residual activity (STK25 (human)) was 91.8%, the residual activity (ERBB2 (human)) was 102% and the residual activity (WEE1 (human)) was 101%. It also gave a residual activity (JAK2 JH1 JH2 (human)) of 98.9%, a residual activity (EPHB4 (human)) of 92.2% and a residual activity (MYO3B (human)) of 93.7%. The residual activity (CHEK1 (human)) was 108%, the residual activity (DYRK1B (human)) was 96.7% and the residual activity (NTRK2 (human)) was 102%. It also gave a residual activity (CAMK1D (human)) of 109%, a residual activity (MAP3K10 (human)) of 98.9% and a residual activity (BRAF (human)) of 94.3%. The residual activity (NUAK1 (human)) was 103%, the residual activity (TAOK1 (human)) was 102% and the residual activity (ULK3 (human)) was 99.5%. It also gave a residual activity (ADRBK1 (human)) of 113%, a residual activity (INSR (human)) of 99.6% and a residual activity (EPHA6 (human)) of 99.3%. The residual activity (PIM3 (human)) was 107%, the residual activity (STK38 (human)) was 102% and the residual activity (RPS6KA1 KD1 KD2 (human)) was 97.9%. It also gave a residual activity (ULK2 (human)) of 99.6%, a residual activity (PAK7 (human)) of 89.4% and a residual activity (YES1 (human)) of 85%. It also gave a residual activity (DSTYK (human)) of 88.8%, a residual activity (PRKACG (human)) of 105% and a residual activity (LCK (human)) of 92.1%. For the same molecule, the residual activity (CAMKK2 (human)) was 101%, the residual activity (DAPK2 (human)) was 107% and the residual activity (PRKG1 (human)) was 75.9% and 98.1%. It also gave a residual activity (TLK2 (human)) of 98.6%, a residual activity (ADRBK2 (human)) of 104% and a residual activity (EGFR (human)) of 97.7%. The residual activity (LYN (human)) was 104% and 95.8% and the residual activity (CDC42BPA (human)) was 103%.
